The values below come from patent US10322105B2, “Pharmaceutical composition containing Ginkgolide B and ADP receptor antagonist, preparation method thereof and use thereof” (CHENGDU BAIYU PHARMACEUTICAL CO., LTD, priority 2014, dated 2019).

Structures can show the parent of a compound that is named as a salt. Where two headings read alike, the source gives them in different places.

Data set [1] has as its system platelet aggregation induced by PAF. The data set can be described thus: Platelet aggregation rate induced by PAF in platelet-rich plasma of rabbits after 7 days of administration. Format: in vivo, Japanese large-ear white rabbits. As to conditions: 5.0 mg/kg once daily for 7 days; for Platelet aggregation rate 1 min / Platelet aggregation rate 5 min / Maximum platelet aggregation rate (MAX): PRP, x ± s, n = 8; for Platelet aggregation rate 1 min: 1 min after addition of 10 μL PAF; for Platelet aggregation rate 5 min: 5 min after addition of 10 μL PAF; for Maximum platelet aggregation rate (MAX): after addition of PAF; for inhibition at 5 mg/kg: Oryctolagus cuniculus, Platelet, 168 h. Here is the method: (§1) All groups were administered with a clinically used route and dosage for 7 days continuously.
After 7 days of administration, 10.5 ml of blood was taken from the heart of each animal, wherein 1.5 ml of […] was used for taking serum and the rest 9 ml of […] was subjected to 3.8% sodium citrate at 1:9 for anticoagulation, centrifuging for 10 minutes at 800 r/min, and taking the supernatant to obtain platelet-rich plasma (PRP), wherein 100 μl of the PRP was taken for electron microscope examination, and the rest of the PRP was used for detecting of the platelet aggregation rate; the remaining portion was centrifuged for 15 min at a speed of 3000 r/min, and platelet-depleted plasma (PPP) was obtained. PPP was used to adjust the number of platelet in PRP, to be at 360×10^9/L. The platelet aggregation rate was recorded at 1 min, 5 min of addition of 10 μL of PAF inducer and the maximum platelet aggregation rate was recorded after the addition of PAR

For a further data set, the system named is platelets. The data set can be described thus: Scanning electron microscopy study of platelet morphology after addition of PAF. The data set is classed as in vivo, Japanese large-ear white rabbits. As to conditions: rabbits, 5.0 mg/kg once daily for 7 days; PRP after addition of PAF, 100 platelets observed. Here is the method:
as §1
The 100 μL of PRP was placed in a silicification EP tube, and 1 μL of PAF was added to induce aggregation of platelets for 15 minutes, the PRP was then placed on a copper mesh sample support laid with a Formar membrane, incubating at 37° C. for 10 min, washing with ultrapure water, fixing with 3% glutaraldehyde for 5 minutes, rewashing with ultrapure water. After the sample on the copper mesh was naturally dried, a layer of 20 nm gold film was plated on the surface of the sample, and the cell morphology was studied with an electron microscope S-3000N. 100 of platelets were observed and calculated the ratio of each type of platelet. The types of platelet under the electron microscope includes: (1) Circle type appears circular or oval, with small size, compact center, large core and low and narrow transparent periphery zone. (2) Tree like type has a single or a plurality of elongated or sheet-shaped sometimes branched foot protrudes from the dense center. (3) Flat type has a dense core in the center and a wide transparent peripheral zone which has a smooth periphery or small bulges. (4) Aggregated-type is usually composed of several to dozens of platelets, with different sizes of the aggregates, wherein the platelets are mutually connected, some of the platelets are integrally fused into a whole, and the foot processes of the peripheral part are prominent.

For data set [2] the following is noted: cited from earlier work.
For data set [3] the following is noted: PLATO study, cited from earlier work.
The conditions of data set [4]: in vivo; cited from earlier work.
Where [5] appears, read: PAF-induced, relative to Saline group.

In general, inhibition refers to the share of the control response that was lost under treatment. As to `COC(=O)[C@H](c1ccccc1Cl)N1CCc2sccc2C1` [Clopidogrel, (S)-alpha-(2-chlorphenyl)-6,7-dihydrothieno [3,2-c]pyridine-5-(4H)acetate hydrogen sulfate], in data set [1], the “Platelet aggregation rate 1 min” value is 35.27 ± 6.08, the “Platelet aggregation rate 5 min” value is given as 53.73 ± 8.46 and the “Maximum platelet aggregation rate (MAX)” value was 60.96 ± 9.50. Also, in data set [1] (setting [5]), the inhibition at 5 mg/kg turned out to be 13.2%. In the data set with platelets, the “Types of morphology: Circle” value is given as 7.7 ± 7.8%, the “Types of morphology: Flat” value stood at 30.7 ± 13.6 % and the “Types of morphology: Tree like” value was 24.6 ± 8.8 %. The Severe bleeding rate in data set [2] (Clopidogrel-treated patients) was 1.4%. Besides, in data set [2] (clinical trial (CAPRIE)), the “Common side effects: abdominal pain” value is listed as 6%, the “Common side effects: diarrhea” value is recorded as 5%, the “Common side effects: digestive tract hemorrhage” value is on record as 2% and the “Common side effects: dyspepsia” value is reported as 5%. For the same compound, in data set [2] (clinical trial (CAPRIE)), the “Common side effects: intracranial hemorrhage” value is reported as 0.4%, the “Common side effects: rash” value was 4% and the “Common side effects: serious granulocyte reduction” value was 0.04%.

For the compound `CC1C(=O)OC2C(O)C34C5CC(C(C)(C)C)C36C(OC(=O)C6O)OC4(C(=O)O5)C12O` (centres unmarked) [Ginkgolide B], the “Platelet aggregation inhibition rate” value in data set [1] (setting [5]) came to 44.66%. In data set [1], the “Platelet aggregation rate 1 min” value was determined as 21.36 ± 4.15 and the “Platelet aggregation rate 5 min” value is recorded as 33.54 ± 5.48. In the data set with platelets, the “Types of morphology: Circle” value is on record as 31.6 ± 6.4 %, the “Types of morphology: Flat” value amounted to 46.1 ± 8.3 % and the “Types of morphology: Tree like” value is 15.8 ± 6.8 %.

For the compound `CC(=O)Oc1cc2c(s1)CCN(C(C(=O)C1CC1)c1ccccc1F)C2` (centres unmarked) [Prasugrel], in data set [1], the “Platelet aggregation rate 1 min” value was 37.14 ± 8.59, the “Platelet aggregation rate 5 min” value turned out to be 55.56 ± 7.53 and the “Maximum platelet aggregation rate (MAX)” value is listed as 63.12 ± 5.47. Moreover, 5 mg/kg produced 10.1% inhibition in data set [1] (setting [5]). Moreover, in the data set with platelets, the “Types of morphology: Circle” value stood at 9.9 ± 7.6 %, the “Types of morphology: Flat” value is listed as 25.4 ± 8.7 % and the “Types of morphology: Tree like” value turned out to be 19.6 ± 6.8 %.

For `CCCSc1nc(N[C@@H]2C[C@H]2c2ccc(F)c(F)c2)c2nnn([C@@H]3C[C@H](OCCO)[C@@H](O)[C@H]3O)c2n1` [Ticagrelor, (1S,2S,3R,5S)-3-[7-[(1R,2S)-2-(3,4-Difluorophenyl)cycloprolamino]-5-(propylsulfanyl)-3H-[1,2,3]triazolo [4,5-d]pyrimidin-3-yl]-5-(2-hydroxyethoxy) cyclopenane-1,2-diol], in data set [1], the “Platelet aggregation rate 1 min” value was found to be 34.21 ± 5.75, the “Platelet aggregation rate 5 min” value came out at 60.50 ± 9.24 and the “Maximum platelet aggregation rate (MAX)” value was 67.74 ± 9.36. In data set [1] (setting [5]), this compound yielded an inhibition at 5 mg/kg of 3.53%. In the data set with platelets, the “Types of morphology: Circle” value turned out to be 6.2 ± 7.5%, the “Types of morphology: Flat” value was 33.6 ± 10.7 % and the “Types of morphology: Tree like” value is 21.4 ± 9.4 %. Besides, the “Occurrence rate of interventricular interval” value in data set [3] (acute stage) was 60%. In data set [3] (after one month), the “Occurrence rate of interventricular interval” value is given as 2.2%.

For the compound `Clc1ccccc1CN1CCc2sccc2C1` [Ticlopidine], the “Occurrence rate of common side effects (digestive tract symptoms and rash)” value in data set [4] is on record as “about 10%”.
